Results published in US20250074911A1, “MACROCYCLIC BTK INHIBITORS” (Crossfire Oncology Holding B.V., priority 2021, published 2025).
Values joined by “and” are separate entries in the source; they are usually repeats but may differ in a detail not shown here. Equal values may be shown once.

Assays:
REC-1 T474I cell lines = test: Cell proliferation assay REC-1 BTK T474I knock-in cells (ATPlite, 72 hours); assay type: cell-based; settings: Homo sapiens, Rec1; 72 hours; read-out: IC50 REC-1 T474I
Outline: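 REC-1 cells carrying CRISPR knock-in mutant BTK, single-cell cloned and sequence-confirmed, were exposed to compound for 72 h and read by ATPlite luminescence. Percentage growth was calculated against the signal at the start of incubation and against untreated 0.3% DMSO wells as maximum growth.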

[1] = target: full-length wt-BTK enzyme (Homo sapiens (Human), UniProt Q06187); test: Biochemical kinase assay wt-BTK (IMAP)
Outline: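 IMAP fluorescence polarization assay: 1.2 nM enzyme pre-incubated 1 h with compound at room temperature, then 50 nM fluorescein-labeled MBP-derived peptide and 4 μM ATP added. Reaction ran 2 h at room temperature in the dark before quenching with IMAP binding solution.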

BTK T474S = BTK T474S (Homo sapiens (Human), UniProt Q06187, T474S); test: Binding kinetics measurements (Surface Plasmon Resonance) on BTK T474S; settings: for Kd: binding affinity by Surface Plasmon Resonance (SPR); for residence time: SPR binding kinetics, BTK T474S, read-out: Tau (h) BTK T474S (Act), target residence time (converted)
Outline: (§1)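 Biotinylated BTK captured on streptavidin chips (4° C; free streptavidin blocked with biocytin); runs at 22° C in buffer with 1% DMSO, 30 μl/min. Single cycle kinetics, five injections rising over 3.16-316 nM; double-referenced sensorgrams fitted, two-state model for induced fit, duplicate constants geometrically averaged.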

[2] = test system: wt-REC-1 mantle cell lymphoma cells; test: Cell proliferation assay wt-REC-1 (ATPlite, 72 hours); assay type: cell-based; settings: 72 h; read-out: IC50 wt-REC-1
Outline: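 Luminescent viability read over 72 h, start-of-incubation signal recorded separately to separate growth from cell death. Percentage growth referenced to compound-free 0.3% DMSO wells; IC50 from 4-parameter logistic fit.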

BTK T316A = BTK T316A (Homo sapiens (Human), UniProt Q06187, T316A); test: Binding kinetics measurements (Surface Plasmon Resonance) on BTK T316A; settings: for Kd: binding affinity by Surface Plasmon Resonance (SPR); for Tau (h) BTK T316A (Act): target residence time, SPR
Outline: as §1

wt-BTK = wt-BTK (Homo sapiens (Human), UniProt Q06187); test: Binding kinetics measurements (Surface Plasmon Resonance) on wt-BTK; settings: for Kd: binding affinity by Surface Plasmon Resonance (SPR); for Tau (h) wt-BTK (Act): target residence time, SPR
Outline: as §1

BTK C481S = BTK C481S (Homo sapiens (Human), UniProt Q06187, C481S); test: Binding kinetics measurements (Surface Plasmon Resonance) on BTK C481S; settings: for Kd: binding affinity by Surface Plasmon Resonance (SPR); for Tau (h) BTK C418S (Act): target residence time for BTK C481S, SPR
Outline: as §1

[3] = test system: wt-TMD8 diffuse large B-cell lymphoma cells; test: Cell proliferation assay wt-TMD8 (ATPlite, 120 hours); assay type: cell-based; settings: B-cell; wt-TMD8 cells, 120 hours, ATPlite; read-out: IC50 wt-TMD8
Outline: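 wt-TMD8 DLBCL cells, 1600 per well in RPMI-1640 with 10% FBS, rested ≥5 h then exposed to compound for 120 h at 37° C, 5% CO2. Viability read by ATPlite luminescence; percentage growth calculated relative to start-of-incubation signal and untreated 0.3% DMSO maximum growth.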

BTK T474I = BTK T474I (Homo sapiens (Human), UniProt Q06187, T474I); test: Binding kinetics measurements (Surface Plasmon Resonance) on BTK T474I; settings: for Kd: binding affinity by Surface Plasmon Resonance (SPR); for Tau (h) BTK T474I (Act): target residence time, SPR
Outline: as §1

[4] = target: full-length BTK C481S enzyme (Homo sapiens (Human), UniProt Q06187, C481S); test: Biochemical kinase assay BTK C481S (IMAP)
Outline: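 Full-length BTK C481S (1.2 nM) was pre-incubated with compound for 1 h at room temperature in the dark, then reacted with fluorescein-labelled MBP-derived peptide (50 nM) and ATP (7 μM) for 2 h. Reactions were quenched with IMAP binding solution, and IC50 values were derived from fluorescence polarization.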

Chain of BTK C481S (Q06187 whole entry C481S): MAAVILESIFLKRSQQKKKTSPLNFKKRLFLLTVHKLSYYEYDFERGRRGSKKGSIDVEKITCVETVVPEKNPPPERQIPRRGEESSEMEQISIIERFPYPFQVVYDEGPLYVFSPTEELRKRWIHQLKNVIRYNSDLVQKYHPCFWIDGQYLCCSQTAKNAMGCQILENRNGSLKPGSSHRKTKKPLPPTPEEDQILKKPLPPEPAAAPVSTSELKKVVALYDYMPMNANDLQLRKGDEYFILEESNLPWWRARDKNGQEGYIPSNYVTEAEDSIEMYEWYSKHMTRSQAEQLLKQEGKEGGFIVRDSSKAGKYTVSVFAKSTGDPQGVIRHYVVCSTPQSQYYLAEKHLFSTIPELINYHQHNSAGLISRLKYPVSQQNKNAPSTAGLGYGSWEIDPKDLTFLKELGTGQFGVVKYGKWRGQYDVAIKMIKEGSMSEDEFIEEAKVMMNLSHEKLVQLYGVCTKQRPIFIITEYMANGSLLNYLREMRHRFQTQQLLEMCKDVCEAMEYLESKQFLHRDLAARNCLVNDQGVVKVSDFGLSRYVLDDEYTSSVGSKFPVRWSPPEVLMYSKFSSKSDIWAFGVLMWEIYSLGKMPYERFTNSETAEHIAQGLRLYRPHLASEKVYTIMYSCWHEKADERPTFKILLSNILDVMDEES
Chain of full-length BTK C481S enzyme (Q06187 whole entry C481S): as above
Chain of BTK T474I (Q06187 whole entry T474I): as the sequence (Q06187 whole entry C481S) above, with T474I, S481C counted along it
Chain of BTK T474S (Q06187 whole entry T474S): as the sequence (Q06187 whole entry C481S) above, with T474S, S481C counted along it
Chain of full-length wt-BTK enzyme (Q06187 whole entry): as the sequence (Q06187 whole entry C481S) above, with S481C counted along it
Chain of wt-BTK (Q06187 whole entry): as the sequence (Q06187 whole entry C481S) above, with S481C counted along it
Chain of BTK T316A (Q06187 whole entry T316A): as the sequence (Q06187 whole entry C481S) above, with T316A, S481C counted along it

Row | SMILES | IC50 (REC-1 T474I cell lines) [nM] | IC50 [1] [nM] | Kd (BTK T474S) [nM] | IC50 [2] [nM] | Kd (BTK T316A) [nM] | Kd (wt-BTK) [nM] | Kd (BTK C481S) [nM] | Tau (h) BTK C418S (Act) (BTK C481S) [h] | IC50 [3] [nM] | Kd (BTK T474I) | IC50 [4] [nM] | residence time (BTK T474S) [h] | Tau (h) BTK T316A (Act) (BTK T316A) [h] | Tau (h) wt-BTK (Act) (wt-BTK) [h] | Tau (h) BTK T474I (Act) (BTK T474I) [h]
1 | Nc1ncc2c3c1c(-c1ccc(C(=O)Nc4ccccn4)cc1)nn3[C@@H]1CCC[C@H](C1)NC(=O)CCCC/C=C\C2 [Example 100b] | 500 to 10000 | < 5 | < 5 | 100 to 1000 | < 5 | < 5 | < 5 | 0.98 | < 100 | 10 to 50 nM and < 5 nM | < 5 | – | – | – | –
2 | Nc1ncc2n3c(nc(-c4ccc(C(=O)Nc5cc(C(F)(F)F)ccn5)cc4)c13)[C@@H]1CCC[C@H](C1)NC(=O)CCCCC/C=C/2 [Example 131] | < 100 | < 5 | < 3 | < 100 | < 5 | < 5 | < 5 | 5.25 | < 100 | < 2 nM | < 5 | 9.61 | 3.44 | 3.70 | 2.37
3 | COc1ccc(F)cc1C(=O)NCc1ccc(-c2nn3c4c(cnc(N)c24)/C=C/CCCCCC(=O)N[C@H](C)CC3)cc1 [Example 139] | 100 to 500 | < 5 | < 3 | 100 to 1000 | < 5 | < 5 | < 5 | 1.36 | < 100 | 10 to 50 nM and < 5 nM | < 5 | 2.11 | – | 1.38 | –
4 | Nc1ncc2c3c1c(-c1ccc(C(=O)Nc4cc(C(F)(F)F)ccn4)cc1)nn3[C@@H]1CCC[C@H](C1)NC(=O)[C@H]1CN(C/C=C/2)CCN1 [Example 141] | < 100 | < 5 | < 3 | < 100 | < 5 | < 5 | < 5 | 4.45 | < 100 | < 2 nM | < 5 | 4.17 | 8.86 | >24 | 6.21
5 | Nc1ncc2c3c1c(-c1ccc(C(=O)Nc4cc(C(F)(F)F)ccn4)cc1)nn3[C@@H]1CCC[C@H](C1)NC(=O)[C@@H]1CCN(C/C=C/2)C1 [Example 147] | < 100 | < 5 | < 3 | < 100 | < 5 | < 5 | < 5 | 1.73 | < 100 | < 2 nM | < 5 | 6.36 | 10.42 | 5.28 | –
6 | C[C@H]1CC(=O)N[C@@H]2CCCC(C2)n2nc(-c3ccc(C(=O)Nc4cc(C(F)(F)F)ccn4)cc3)c3c(N)ncc(c32)/C=C/CCN1 [Example 150] | 100 to 500 | < 5 | < 3 | 100 to 1000 | < 5 | < 5 | < 5 | 1.51 | < 100 | < 2 nM | < 5 | 1.5 | 2.48 | 2.52 | –
7 | C[C@H]1CC(=O)N[C@@H]2CCC[C@H](C2)n2nc(-c3ccc(C(=O)Nc4cc(C(F)(F)F)ccn4)cc3)c3c(N)ncc(c32)/C=C/CN1C [Example 151] | 100 to 500 | < 5 | < 3 | 100 to 1000 | – | < 5 | < 5 | 8.25 | < 100 | < 2 nM | < 5 | 2.11 | 1.89 | 7.58 | 0.70
8 | C[C@H]1CC(=O)N[C@@H]2CCC[C@H](C2)n2nc(-c3ccc(C(=O)Nc4cc(C(F)(F)F)ccn4)cc3)c3c(N)ncc(c32)/C=C/CCN1C [Example 152] | < 100 | < 5 | < 3 | 100 to 1000 | < 5 | < 5 | < 5 | 5.84 | < 100 | < 2 nM | < 5 | 1.24 | 6.08 | 2.36 | 2.11
